Values of other authors in patent publication US9072768B2, “Composition and method for increasing effectiveness of radiation or chemotherapy” (Kibow Biotech, Inc., priority 2013, dated 2015).

Test system: colorectal cancer
Conditions: adjuvant treatment, stage III patients

In the case of `O=c1[nH]cc(F)c(=O)[nH]1` [5-Fluorouracil], the “improvement of absolute 5-year survival” value is given as “approximately 10%”.
